Assay results published in US6818618B1, “Inhibition of smooth muscle cell migration by Tenascin-C peptides” (Cedars-Sinai Medical Center, priority 1998, dated 2004).
Entries after “also recorded” stand apart in the source; their conditions may differ.

Key:
[1] = tested on: newborn aortic SMCs; test: Adhesion assay: newborn SMCs on wells coated with the substance; type: cell-based, rat; settings: for adhesion activity relative to the Fbg-L domain: peptide coated at 10 μg/ml on tissue culture dishes; for level of adhesion of newborn SMCs to coated substrate: wells coated with 10 μg/ml substrate
Procedure: (§1) Adult Aortic SMCs were cultured as described (12). Newborn (9-day old) aortic SMCs were obtained from Dr. Stephen, M. Schwartz, of University of Washington, and subsequently cultured (13). Briefly, rat aortic SMCs were isolated by enzymatic digestion of rat aorta (Sprague-Dawley, 2 months old, 270 g). Cells were grown in DMEM/F12 media (Gibco) supplemented with 10% fetal bovine serum (Gibco). After reaching confluence, cells (between 3rd and 6th passages) were used for adhesion studies.
(§2) Microtiter plates (Falcon, Becton Dickinson, Oxnard, Calif.) were coated with the respective substrate for one (1) hour at 37° C. Nonspecific sites were blocked with 1 mg/ml BSA in PBS. […] After incubation for 60 min. at 37° C., nonadherent cells were removed with gentle washing with PBS. The number of attached cells were quantified by staining cells with 0.2% crystal violet in 20% methanol, lysing with 1% SDS, and measuring the absorbance at 550 nm (14).
To determine the concentration for the adhesion assays, microtiter plates were coated with increasing concentrations (1-100 μg/ml) of substrates, and the number of adherent cells was quantified. Adhesion of cells to Tenascin-C reached saturation levels at coating concentrations of 10 μg/ml (not shown). Therefore, all the subsequent adhesion assays were performed by coating the wells with a 10 μg/ml substrate.
The active domain of Tenascin-C was mapped using recombinant proteins corresponding to full-length Fbg-L and FN-L domains as well as FN-L subdomains 6-8, A-D, A1A2, and D. The ability of these domains, or subdomains, to interact with newborn SMCs was determined by an adhesion assay, and the results are shown in FIG. 5. In FIG. 5, a microtiter plate was coated with BSA, fibronectin (FN), intact Tenascin-C (TN), and the recombinant proteins corresponding to: the Fbg-L domain (Fbg-L), the entire FN-L repeats (AII), the constitutively spliced repeats 6-8, the alternatively spliced A-D, A1A2, and D domains. An adhesion assay was performed with newborn SMCs. Values shown are from a representative experiment in which triplicates are plotted±SEM.
The ability of the synthetic peptides to directly interact with newborn cells was determined by an adhesion assay. […] In FIG. 8, 96-well plates were coated with solutions containing BSA (C), fibronectin (FN), Tenascin-C (TN), the fibrinogen-like domain (Fbg-L), and synthetic peptides at a concentration of 10 μg/ml in PBS. An adhesion assay was performed with newborn rat SMCs. Tissue culture plates were coated with increasing concentrations of peptides from 0.1 to 10 μg/ml, and the adhesion of newborn cells was measured. Values shown are from a representative experiment in which triplicates are plotted as mean±SEM.

[2] = tested on: adhesion of newborn SMCs to Tenascin-C; test: Adhesion of newborn SMCs to Tenascin-C-coated wells in the presence of soluble agents; type: cell-based, rat; settings: for effect on adhesion of SMCs to Tenascin-C (summary statement): concentration not given; for inhibition of attachment of SMCs to Tenascin-C: 0.1 mg/ml GRGDS peptide, higher concentrations did not significantly alter adhesion
Procedure: as §2
(§3) It has been shown that the interaction of some cells with Tenascin-C is mediated by the RGD motif (20, 23). Therefore, an adhesion assay was used to determine the role of RGD in the interaction between Tenascin-C and SMCs. The specificity of the adhesion was determined by coating the wells with the recombinant 10th-type III repeat of fibronectin (24). In FIG. 2, 96-well plates were coated with either BSA (BSA), Tenascin-C (TN), or the recombinant 10th-type III repeat of fibronectin (10III) as described for FIG. 1. Newborn SMCs were detached, washed once in adhesion buffer and added to various concentrations of the peptide GRGDS. Cells and peptides were then preincubated for 30 min. prior to plating. The values shown are the mean±SEM of triplicate samples. Nonspecific binding to control wells coated with BSA was not subtracted from each value.
(§4) In FIG. 3, 96-well plates were coated with solutions containing intact fibronectin (FN), the recombinant 10th-type III repeat of fibronectin (FN10III), or Tenascin-C (TN). […] The number of attached cells was quantified by a colorimeter. Values shown are from a representative experiment in which triplicates are plotted as mean±SEM.
(§5) In FIG. 4, 96-well plates were coated with either Tenascin-C (TN) or the recombinant tenth type III repeat of fibronectin (10III) as described for FIG. 1. […] Values shown are from the mean±SD of triplicate samples.
To distinguish between these possibilities, the recombinant FN-L proteins were labeled with ^125I, and their ability to coat the tissue culture dishes was compared to the Fbg-L domain. […] To determine whether the binding to tissue culture dishes had influenced the activity of the recombinant proteins, the ability of soluble Fbg-L or FN-L domains and subdomains to inhibit the interaction between intact Tenascin-C and SMCs was examined. […] In FIG. 6, 96-well plates were coated with fibronectin (FN), the recombinant tenth type III repeat of fibronectin (10III), or an intact Tenascin-C molecule (TN). Newborn SMCs were incubated for 15 min. at 37° C. with a solution of 200 μg/ml of a recombinant Fbg-L domain, the entire FN-L domain (FN-L), or the alternatively spliced A-D repeats (AD). […] Adhesion was measured as described above. Values shown are from representative experiments in which triplicates are plotted±SEM.
(§6) In FIG. 8(B), 96-well plates were coated with BSA, intact Tenascin-C (TN) or the fibrinogen-like domain (Fbg-L), and adhesion of newborn cells was measured in the presence of 1 μM synthetic peptides.

[3] = tested on: newborn rat SMCs migration on Tenascin-C substrate; test: Migration assay (modified Boyden's chamber) on Tenascin-C substrate; type: cell-based
Procedure: (§7) Cell migration was measured by a modification of the Boyden's chamber method using microchemotaxis chambers (Neuro Probe Inc.). Polycarbonate filters were coated with 10 μg/ml of substrates overnight at 4° C. Newborn rat SMCs were suspended at a concentration of 10^5 cells/ml in serum-free DMEM supplemented with 1 mg/ml BSA. A volume of 50 μl of cell suspension was placed in the upper chamber, and 30 μl of 10% bovine calf serum in DMEM was placed in the lower chamber. In some experiments, cells were suspended in DMEM supplemented with 0.1 μM of the fibrinogen-like domain (Fbg-L) or 1 μM of peptide VIII before addition to the upper chamber. The chamber was incubated at 37° C. under 5% CO2 in air for 4 hours. The filter was removed, and the cells on the upper side of the filter were scraped off. The SMCs that had migrated to the lower side of the filter were fixed in methanol, stained with Diff-Quick staining solution (Baxter) and counted under a microscope.
(§8) To map the active domain of Tenascin-C that is involved in cell migration, the ability of the recombinant domains to block SMCs migration on a Tenascin-C substrate was determined. […] In FIG. 9, cell migration was measured by a modification of Boyden's chamber. […] Migrating cells were fixed and counted under a microscope. Nine high power fields (HPF) were counted for each triplicate. […]

[4] = tested on: newborn rat SMCs migration on collagen substrate; test: Migration assay (modified Boyden's chamber) on collagen substrate; type: cell-based; settings: Fbg-L or 1 μM peptide VIII in upper chamber
Procedure: as §7, §8

[5] = tested on: adult rat aortic SMCs; test: Adhesion assay: adult aortic SMCs on wells coated with the substance; type: cell-based; settings: for adhesion of adult SMCs to coated substrate: 60 min, crystal violet absorbance
Procedure: as §1, §2
Interaction between aortic SMCs and Tenascin-C was assessed by an adhesion assay. […] In FIG. 1, 96-well plates were coated with solutions containing intact fibronectin (FN), vitronectin (VN) or Tenascin-C (TN) and incubated with either adult or newborn aortic SMCs. Adhesion is measured by determining absorbance of attached cells after staining with crystal violet. Values shown are from a representative experiment in which triplicates are plotted as mean±SEM.

[6] = tested on: adhesion of newborn SMCs to the recombinant 10th-type III repeat of fibronectin; test: Adhesion of newborn SMCs to the recombinant 10th-type III repeat of fibronectin in the presence of soluble agents; type: cell-based, rat
Procedure: as §2, §3, §4, §5
To distinguish between these possibilities, the recombinant FN-L proteins were labeled with ^125I, and their ability to coat the tissue culture dishes was compared to the Fbg-L domain. […] Adhesion was measured as described above. […]

[7] = tested on: adhesion of newborn SMCs to the Fbg-L domain; test: Adhesion of newborn SMCs to Fbg-L domain-coated wells in the presence of soluble agents; type: cell-based, rat; settings: EDTA or cations; not shown
Procedure: as §2, §6

[8] = tested on: adhesion of SMCs to peptide VIII; test: Adhesion of SMCs to peptide VIII-coated wells in the presence of soluble agents; type: cell-based, rat; settings: EDTA or cations; not shown
Procedure: as §2

[9] = increasing cation concentration
[10] = various concentrations of cation

IX: 30 amino acid synthetic peptide from the C-terminal part of the Fbg-L domain of Tenascin-C, Seq. Id. No. 9 (FHWKGHEHSIQFAEMKLRPSNFRNLEGRRKRA)
adhesion activity relative to the Fbg-L domain [1]: 30%

GRFDS
effect of inactive control peptide on adhesion (compared with GRGDS) ([2]; not shown): no effect

peptide VIII: 30 amino acid synthetic peptide located near the C-terminal part of the Fbg-L domain of Tenascin-C, Seq. Id. No. 8 (WYRNCHRVNLMGRYGDNNHSQGVNWFHWKG)
inhibition of SMCs chemotaxis on Tenascin-C substrate ([3]; 0.1 μM Fbg-L or 1 μM peptide VIII in upper chamber, 4 hours): ~70%
adhesion activity relative to the Fbg-L domain [1]: 80%
level of adhesion of newborn SMCs to coated substrate [1]: strongly promoting newborn cell adhesion
effect on adhesion of SMCs to Tenascin-C (summary statement) [2]: completely blocked
effect on migration of SMCs on collagen substrate [4]: did not interfere

Tenascin-C: intact Tenascin-C purified from conditioned media of BHK cells overexpressing Tenascin-C
SMCs chemotaxis on coated substrate compared to BSA ([3]; filters coated with 10 μg/ml substrate): stimulated
coating concentration at which cell adhesion reached saturation levels ([1]; increasing coating concentrations): 10 µg/mL
adhesion of newborn SMCs to Tenascin-C relative to adult cells ([1]; newborn vs adult SMCs, coated wells): 3-4 times higher
level of adhesion of newborn SMCs to coated substrate [1]: comparable to the attachment levels observed with fibronectin; also recorded: high compared to the fibronectin
adhesion of adult SMCs to Tenascin-C relative to attachment to the adhesive proteins (fibronectin, vitronectin) ([5]; coated wells): 3-4 times lower

fibronectin
adhesion of adult SMCs to coated substrate [5]: avidly adhered

[Mg+2] [Mg^2+]
cation concentration giving maximal cell adhesion to the recombinant fibronectin fragment [6, 9]: 5 to 10 mM
effect of cation on newborn SMCs adhesion to the recombinant fibronectin fragment [6, 10]: increased
effect on adhesion of SMCs to the Fbg-L domain [7]: promoted
effect on adhesion of SMCs to Tenascin-C (summary statement) [2]: promoted
increase potential for the interaction between newborn SMCs and Tenascin-C ([2]; in the presence of Mg^2+): three-fold
cation concentration giving maximal cell adhesion to Tenascin-C [2, 9]: 5 to 10 mM
effect of cation on newborn SMCs adhesion to Tenascin-C [2, 10]: increased
effect on adhesion to peptide VIII [8]: promoted

GRGDS
inhibition of attachment of newborn SMCs to the recombinant fibronectin fragment ([6]; 0.1 mg/ml peptide, 30 min preincubation): complete inhibition
inhibition of attachment of SMCs to Tenascin-C [2]: approximately 30%
inhibition of attachment of SMCs to Tenascin-C ([2]; listed as RGD peptide): 30%

B1: vitronectin: vitronectin matrix protein (protein, UniProt P04004 20-478, looked up)
Vitronectin: DQESCKGRCTEGFNVDKKCQCDELCSYYQSCCTDYTAECKPQVTRGDVFTMPEDEYTVYDDGEEKNNATVHEQVGGPSLTSDLQAQSKGNPEQTPVLKPEEEAPAPEVGASKPEGIDSRPETLHPGRPQPPAEEELCSGKPFDAFTDLKNGSLFAFRGQYCYELDEKAVRPGYPKLIRDVWGIEGPIDAAFTRINCQGKTYLFKGSQYWRFEDGVLDPDYPRNISDGFDGIPDNVDAALALPAHSYSGRERVYFFKGKQYWEYQFQHQPSQEECEGSSLSAVFEHFAMMQRDSWEDIFELLFWGRTSAGTRQPQFISRDWHGVPGQVDAAMAGRIYISGMAPRPSLAKKQRFRHRNRKGYRSQRGHSRGRNQNSRRPSRATWLSLFSSEESNLGANNYDDYRMDWLVPATCEPIQSVFFFSGDKYYRVNLRTRRVDTVDPPYPRSIAQYWLGCPAPGHL
adhesion of adult SMCs to coated substrate [5]: avidly adhered
